Test results published in patent US5691376A, “Substituted biphenyl derivatives” (American Home Products Corporation, priority 1996, dated 1997).
Where a name gives a salt, the structure may show the parent alone.

How the values were obtained:
[1] = tested on: PDE IV isolated from dog tracheal muscle; test: Test Procedure No. 1: inhibition of PDE IV from canine tracheal muscle (cAMP metabolism); assay type: biochemical, dog (canine); conditions: 1 μM 3H-cAMP, 10 μM CI-930, 30° C.
Procedure: A solution containing PDE IV is prepared from canine tracheal muscle as follows:
The dog is euthanized with an overdose of beuthanasia while under anesthesia induced by a 33 mg/kg IV bolus of Nembutal. The trachealis muscle is removed, cleaned of connective tissue, and minced thoroughly. Three to four grams of tissue is then homogenized in Tris-HCl buffer (pH 7.8) using a Polytron. The homogenate is then centrifuged at 25,000×g (4° C.) for 30 minutes. The supernatant is decanted and filtered through four layers of gauze, and applied to a 40 cm×2 cm DEAE-Sepharose column that is equilibrated with Tris-HCl buffer (pH 7.8). The column is then washed with an additional 240 mL of buffer to remove unbound proteins. PDE is eluted using 450 mL of Tris-HCl buffer containing a linear gradient of 0.0-1.0M Na-acetate (80 mL/hr), and 7.5 mL fractions are collected. Each fraction is assayed for cAMP- and cGMP-metabolizing PDE activity. Fractions eluting at approximately 0.6M Na-acetate, and containing cAMP but not cGMP metabolic activity are pooled and used as a PDE stock solution for assaying PDE IV inhibitory activity.
CI-930 is included as an inhibitor of the cyclic GMP-sensitive, cyclic AMP-selectivePDE (PDE III) that is also present in the PDE IV stock solution when prepared as described above.
The two abovementioned PDE IV inhibition tests were used to determine the PDE IV inhibitory abilities of some of the compounds of the present invention.

[2] = tested on: U937 PDE IV; test: Test procedure No. 3: inhibition of PDE-IV isolated from U937 cells; assay type: biochemical; conditions: 1 μM [3H]-cAMP; 37° C.; pH 7.8; linear regression of percent inhibition
[3] = tested on: PDE IV; test: Test Procedure No. 2: functional PDE IV inhibition, relaxation of carbachol-precontracted tracheal rings with CI-930; assay type: cell-based, guinea pig (Male Hartley); conditions: guinea pig tracheal rings precontracted with 1 μM carbachol; CI-930 10 μM; read-out: Test No. 2 IC50 (functional PDE inhibitory test)
Procedure: The following standard test is also employed to assess the abilities of compounds to inhibit PDE IV functionally.
Male Hartley guinea pigs (500-550 g, Charles River) were euthanized by a blow to the head, and the tracheas were removed and placed in aerated physiological salt solution (PSS) containing NaCl ([…]), KH2 PO4 ([…]), KCl (4.74 mM), CaCl2 (2.5 mM), MgSO4.7H2 O ([…]), NaHCO3 (25 mM), dextrose (11.1 mM), cocaine and hydrocortisone (3 μM and 10 μM, respectively, to block intraneural and extraneural uptake mechanisms), propranolol and phentolamine (1 μM and 10 μM, respectively, to block adrenoceptors),indomethacin (2.8 μM; to block spontaneous tension generation), and calcium disodium EDTA (26 μM, as an antioxidant). Tracheal rings were prepared and mounted in 10 ml organ baths for the measurement of isometric tension generation as previously described (Heaslip et al., 1986).
Tracheal relaxation resulting from the inhibition of PDE-IV or PDE-III was assessed by a method similar to that employed by Harris et al. (1989). Tracheal rings were precontracted with 1 μM carbachol until a stable level of tension was obtained (30 min). To explore the inhibition of PDE-IV, tracheal rings were then incubated (45 min) with CI-930 (10 μM), thus inhibiting PDE-III and sensitizing the ring to the relaxant effects of PDE-IV inhibitors. Conversely, the inhibition of tracheal PDE-III was explored using rings pretreated with rolipram (10 μM), and thereby sensitized to PDE-III inhibitors (Harris et al., 1989). The functional inhibition of PDE-IV or PDE-III was determined by adding a test compound to the tissue bath in cumulatively increasing concentrations and monitoring the degree of relaxation induced in the continued presence of CI-930 or rolipram (respectively). After adding the final concentration of test compound to the organ bath, tracheal rings were washed repeatedly with PSS, and allowed to relax to resting tension. Percent relaxations produced by each concentration of test compound were calculated as a percentage relaxation of tension maintained in the presence of the preincubating PDE inhibitor, relative to the final resting tension determined at the end of each experiment.
The two abovementioned PDE IV inhibition tests were used to determine the PDE IV inhibitory abilities of some of the compounds of the present invention. The table below indicates the compounds tested and the results thereof. For each of Tests 1 and 2, the results are given as IC50 s for the compound tested in M concentrations.

| IC50 ([1]; pH 7.8) [nM] | Structure (SMILES) | other results |
| --- | --- | --- |
| 550 | COc1ccc(-c2cccc(NC(N)=O)c2)cc1OC1CCCC1 [Example 27, (3'-Cyclopentyloxy-4'-methoxy-biphenyl-3-yl)-urea] | – |
| 4.3 | COc1ccc(-c2cccc(C(C)=O)c2)cc1OC1CCCC1 [Example 11, 1-(3'-Cyclopentyloxy-4'-methoxy-biphenyl-3-yl)-ethanone] | – |
| – | COc1ccc(-c2ccc(C(=O)O)cc2)cc1OC1CCCC1 [Example 17, 3'-Cyclopentyloxy-4'-methoxy-biphenyl-4-carboxylic acid sodium salt] | IC50 ([1]; pH 7.8, sodium salt): 110 nM |
| – | COc1ccc(-c2ccc(C(=O)NCc3cccnc3)cc2)cc1OC1CCCC1 [Comparative Example 1, 3'-Cyclopentyloxy-4'-methoxy-biphenyl-4(3-methylpryridyl) carboxylic acid amide, reference compound] | IC50 [2]: > 1000 nM |
| 36 | COc1ccc(-c2ccc(C=NO)cc2)cc1OC1CCCC1 [Example 22, 3'-Cyclopentyloxy-4'-methoxy-biphenyl-4-carbaldehyde oxime] | IC50 [3]: 140 nM |
| 100 | COc1ccc(-c2ccccc2C=O)cc1OC1CCCC1 [Example 10, 3'-Cyclopentyloxy-4'-methoxy-biphenyl-2-carbaldehyde] | – |
| 100 | COc1ccc(-c2ccc(Cl)cc2)cc1OC1CCCC1 [Example 6, 4-Chloro-3'-Cyclopentyloxy-4'-methoxy-biphenyl] | IC50 [3]: 12000 nM |
| 580 | COC(=O)c1ccc(-c2ccc(OC)c(OC3CCCC3)c2)cc1 [Example 19, 3'-Cyclopentyloxy-4'-methoxy-biphenyl-4-carboxylic acid methyl ester] | – |
| 330 | COc1ccc(-c2ccc(N)cc2)cc1OC1CCCC1 [Example 16, 3'-Cyclopentyloxy-4'-methoxybiphenyl-4-ylamine] | – |
| 84 | COc1ccc(-c2cccc(C#N)c2)cc1OC1CCCC1 [Example 14, 3'-Cyclopentyloxy-4'-methoxy-biphenyl-3-carbonitrile] | – |
| 60 | COc1ccc(-c2ccc(C(N)=O)cc2)cc1OC1CCCC1 [Example 2, 3'-Cyclopentyloxy-4'-methoxy-biphenyl-4-carboxylic acid amide] | IC50 [3]: 160 nM |
| 49 | COc1ccc(-c2ccc3c(=O)[nH][nH]c(=O)c3c2)cc1OC1CCCC1 [Example 34, 6-(3'-Cyclopentyloxy-4-methoxyphenyl)-2,3-dihydrophthalizine-1,4-dione] | – |
| 86 | COc1ccc(-c2ccc(C(C)=O)cc2)cc1OC1CCCC1 [Example 12, 1-(3'-Cyclopentyloxy-4'-methoxy-biphenyl-4-yl)-ethanone] | – |
| 270 | COc1ccc(-c2ccc(NC(N)=O)cc2)cc1OC1CCCC1 [Example 26, (3'-Cyclopentyloxy-4'-methoxy-biphenyl-4-yl)-urea] | – |
| 23 | COc1ccc(-c2cccc(C(=O)O)c2)cc1OC1CCCC1 [Example 5, 3'-Cyclopentyloxy-4'-methoxy-biphenyl-3-carboxylic acid] | IC50 [3]: 61 nM |
| 31 | COC(=O)c1cccc(-c2ccc(OC)c(OC3CCCC3)c2)c1 [Example 18, 3'-Cyclopentyloxy-4'-methoxy-biphenyl-3-carboxylic acid methyl ester] | IC50 [3]: 230 nM |

| IC50 ([1]; pH 7.8) [nM] | Structure (SMILES) | other results |
| --- | --- | --- |
| 470 | COc1ccc(-c2cccc(NC(C)=O)c2)cc1OC1CCCC1 [Example 29, N-(3'-Cyclopentyloxy-4'-methoxy-biphenyl-3-yl)-acetamide] | – |
| 34 | COc1ccc(-c2cccc(C=O)c2)cc1OC1CCCC1 [Example 8, 3'-Cyclopentyloxy-4'-methoxy-biphenyl-3-carbaldehyde] | IC50 [3]: 330 nM |
| 39 | COc1ccc(-c2cccc(C=NO)c2)cc1OC1CCCC1 [Example 23, 3'-Cyclopentyloxy-4'-methoxy-biphenyl-3-carbaldehyde oxime] | IC50 [3]: 1900 nM |
| 100 | COc1ccc(-c2cccc(C(=O)NN)c2)cc1OC1CCCC1 [Example 4, 3'-Cyclopentyloxy-4'-methoxy-biphenyl-3-carboxylic acid hydrazide] | – |
| 1000 | COc1ccc(-c2ccc(NC(C)=O)cc2)cc1OC1CCCC1 [Example 28, N-(3'-Cyclopentyloxy-4'-methoxy-biphenyl-4-yl)-acetamide] | – |
| 10000 | COc1ccc(-c2ccc(C(=O)O)c(C(=O)O)c2)cc1OC1CCCC1 [Example 32, 3'-Cyclopentyloxy-4'-methoxy-biphenyl-3,4-dicarboxylic acid] | – |
| 290 | COc1ccc(-c2ccc3c(c2)CCC/C3=N\O)cc1OC1CCCC1 [Example 21, (E)-6-(3-Cyclopentyloxy-4-methoxy-phenyl)-3,4-dihydro-2H-naphthalen-1-one oxime] | – |
| 16 | COc1ccc(-c2cccc(C(N)=O)c2)cc1OC1CCCC1 [Example 30, 3'-Cyclopentyloxy-4'-methoxy-biphenyl-3-carboxylic acid amide] | – |
| 59 | COc1ccc(-c2ccc3c(c2)CCCC3=O)cc1OC1CCCC1 [Example 20, 6-(3-Cyclopentyloxy-4-methoxy-phenyl)-3,4-dihydro-2H-naphthalen-1-one] | – |
| 100 | COc1ccc(-c2ccc(C(=O)NO)cc2)cc1OC1CCCC1 [Example 31, 3'-Cyclopentyloxy-4'-methoxy-biphenyl-4-carboxylic acid hydroxylamide] | – |
| 58 | COc1ccc(-c2ccc(C(=O)NN)cc2)cc1OC1CCCC1 [Example 3, 3'-Cyclopentyloxy-4'-methoxy-biphenyl-4-carboxylic acid hydrazide] | IC50 [3]: 66 nM |
| 1100 | COC(=O)c1ccc(-c2ccc(OC)c(OC3CCCC3)c2)cc1C(=O)OC [Example 33, 3'-Cyclopentyloxy-4'-methoxy-biphenyl-3,4-dicarboxylic acid dimethyl ester] | – |
| 730 | COc1ccc(-c2ccc3c(c2)CCC/C3=N\OC(C)=O)cc1OC1CCCC1 [Example 25, E-6-(3-Cyclopentyloxy-4-methoxy-phenyl)-3,4-dihydro-2H-naphthalen-1-one oxime acetate] | – |
| 20 | COc1ccc(-c2ccc(C=O)cc2)cc1OC1CCCC1 [Example 9, 3'-Cyclopentyloxy-4'-methoxy-biphenyl-4-carbaldehyde] | IC50 [3]: 23 nM |
| 610 | COc1ccc(-c2ccc(C(=O)c3ccccc3)cc2)cc1OC1CCCC1 [Example 13, (3'-Cyclopentyloxy-4'-methoxy-biphenyl-4-yl)-phenylmethanone] | – |

| Structure (SMILES) | IC50 ([1]; pH 7.8) [nM] | other results |
| --- | --- | --- |
| COc1ccc(-c2ccc(C(=O)O)cc2)cc1OC1CCCC1 [Example 1, 3'-Cyclopentyloxy-4'-methoxy-biphenyl-4-carboxylic acid] | 245 | IC50 [2]: 230 nM |
